Common to all, as to assay type: cell-based, Human
Data set [1] has as its system Washed platelets. As to the kind of experiment: Cellular apoptosis (externalization of phosphatidylserine, annexin V). Particulars: 1, 2, 5, 10 and 20 μM; 15 min. The method, then:
(§1) Human platelet purification. The blood sample was obtained from voluntary donors (10 days without antiplatelet medication) who agreed to participate after signing informed consent (Scientific Ethics Committee of the University of Talca N° 04–2022). Briefly, blood anticoagulated with acid-citrate-dextrose (ACD) was obtained in a 4:1 v/v ratio. The sample was centrifuged for 12 min at 250 g to obtain platelet-rich plasma (PRP). Subsequently, the PRP was centrifuged for 8 min at 900 g to obtain the platelet pellet. The plasma supernatant was removed, and the platelets were resuspended in Tyrodes buffer without calcium plus ACD in a ratio of 5:1 v/v. The platelets were centrifuged once more for 8 min at 900 g and the pellet was resuspended in Tyrodes buffer without calcium. Finally, the platelets were counted (Mindray BC-3000 Plus hematology counter, Japan), adjusted to the desired concentration, and used within 3 h.
Cellular apoptosis (externalization of phosphatidylserine). Washed platelets (200-250 × 10^6 platelets/mL) were incubated with the NP4 compound (1, 2, 5, 10 and 20 μM) for 15 min at 37 °C. Then 15 μL of the reaction was mixed with 25 μL of annexin V binding buffer (1x) and labeled with 2 μL of annexin V FITC (BD Pharmingen, FITC Annexin V Apoptosis Detection Kit I). […]

Another data set concerns platelets. The data set is described as follows: Oxygen consumption and extracellular acidification rate (Seahorse XFe24). As for the experimental part:
as §1
Oxygen consumption and extracellular acidification rate. Oxygen consumption rate (OCR) and extracellular acidification rate (ECAR) were measured with a Seahorse XFe24 extracellular flux analyzer (Agilent, Santa Clara, CA, USA). Briefly, 100 μL of platelets washed in modified Tyrode-HEPES buffer were deposited (20–25 × 10^6 cells/well) and then centrifuged at 300 g for 10 min. Platelets were incubated with NP4 10 μM for 5 min, and then Tyrode's-HEPES buffer was removed and Seahorse medium (8.3 g/L DMEM, 1.85 g/L NaCl, 5 mM glucose, 1 mM pyruvate, 2 mM glutamine, 5 mM HEPES, pH 7.4) was added to a final volume of 600 μL [70]. OCR was measured before and after the sequential addition of 3 μg/mL collagen, 2.5 μM oligomycin, 1.4 μM FCCP, and 2 μM/2 μM antimycin A/rotenone. Non-mitochondrial OCR was subtracted from all measurements. Respiratory parameters obtained with Mito Stress Test (Supplementary Table 1) were calculated as follows: Baseline (baseline OCR), collagen (OCR after collagen addition), activation (collagen-basal), ATP-independent or proton leak (OCR resistant to oligomycin addition), ATP-linked respiration (basal-proton leak), maximum (OCR obtained after addition of FCCP), and spare (maximal-basal), coupling efficiency (OCR Basal – OCR ATP-indep)/OCR Basal). Respiratory parameters were calculated according to Refs. [66, 70, 73].

The test system of data set [2] is Washed platelets. The data set is described as follows: Intraplatelet (cytosolic) ROS levels (DHE). The note with it: compounds 1, 5 and 10 μM, 10 min. As for the experimental part: as §1
Intraplatelet ROS levels. Washed platelets (50 × 10^6 platelets/mL) were labeled with the dihydroethidium (DHE) probe 10 μM and incubated for 20 min at 37 °C protected from light. After, compounds (1, 5, and 10 μM) were added to the platelets and incubated for 10 min at 37 °C. The sample was acquired in the BD Facs Lyric flow cytometer (BD Biosciences, USA). Representative dot plots are available in Supplementary Figs. 18 and 27. As a positive control for ROS, antimycin A 20 μM was used.

Data set [3] has as its system Washed platelets. As to the kind of experiment: Mitochondrial ROS (mtROS) levels (MitoSOX). The method, then:
as §1
Mitochondrial ROS (mtROS) Levels. The MitoSOX probe was used to identify mitochondrial ROS production specifically. Washed platelets (50 × 10^6 platelets/mL) were labeled with the MitoSOX® Red probe (Invitrogen, Carlsbad, CA, USA) 10 μM and incubated for 20 min at 37 °C protected from light. After, compounds (1, 5, and 10 μM) were added to the platelets and incubated for 10 min at 37 °C. […]

Take `Cc1c(C)c(O)c2c(c1O)C(=O)C(CCCC[P+](c1ccccc1)(c1ccccc1)c1ccccc1)=CC2(C)C.[Br-]` [NP4, (4-(5,8-dihydroxy-4,4,6,7-tetramethyl-1-oxo-1,4-dihydronaphthalen-2-yl)butyl)triphenyl phosphonium bromide]: the “Apoptosis (phosphatidylserine externalization)” value in the data set with Washed platelets [1] is reported as “none of the concentrations evaluated for NP4 showed significant effects”. Besides, in the data set with platelets (10 µM), the “ATP-dep (OCRBasal – OCRATP-indep)” value was 0,2 ± 0,22, the “Activation (OCRCollagen – OCRBasal)” value is given as 0,15 ± 0,14, the “Coupling efficiency ((OCRBasal – OCRATP-indep)/OCRBasal)” value was 0,095 ± 0,075 and the “Spare (OCRMaximum – OCRBasal)” value is reported as 1,03 ± 0,29. Moreover, in the data set with platelets (10 µM, Seahorse Mito Stress Test), the “Basal (OCR/10^6 platelets)” value is reported as 1,33 ± 0,69 OCR/10^6 platelets. For the same compound, the “Maximum (OCR/10^6 platelets)” value with platelets (10 µM, after 1.4 μM FCCP) is recorded as 2,28 ± 0,45 OCR/10^6 platelets. In addition, the “Collagen (OCR/10^6 platelets)” value with platelets (10 µM, after 3 μg/mL collagen) is given as 1,29 ± 0,48 OCR/10^6 platelets. Moreover, in the data set on platelets (10 µM, after antimycin A/rotenone), the “Non-mito (OCR/10^6 platelets)” value is 0,04 ± 0,08 OCR/10^6 platelets. The “ATP-indep (OCR/10^6 platelets)” value with platelets (10 µM, proton leak, after 2.5 μM oligomycin) is on record as 1,69 ± 0,47 OCR/10^6 platelets. Besides, the “Basal extracellular acidification of the media” value with platelets (non-activated platelets, NP4 10 μM, control 87.5 ± 10.6) was 133.9 ± 14.1 mpH/min/10^6 platelets. Moreover, the “Cytosolic total ROS levels” value in the data set on Washed platelets [2] was “neither NP4 nor NH4 significantly affected”. For the same compound, the mtROS generation result in the data set with Washed platelets [3] (10 μM, MitoSOX, 10 min) was “able to increase”. Besides, the “Dependence of depolarizing and antiplatelet effect on mtROS” value in the data set with Washed platelets [3] (MitoTempol 1 µM added first, then NP4 10 µM) is “independent of mitochondrial ROS levels”.
